Experimental data from patent US20080102111A1, “Anticancer Composition for Oral Use Comprising Liposome Containing Phytosterols and Prevention or Treatment for Cancer Using the Liposome” (priority 2005, published 2008).

System: B16BL6 melanoma cells
Assay: Metastasis-inhibiting activity in B16BL6 melanoma cells by the liposome compositions (lung colony count)
Assay type: in vivo, C57BL6/J mice
Conditions: lung surface colonies on 21st day; 0.2 mL oral once per day up to 6th day; B16BL6 cells i.v. 3×10^4/animal on 7th day
Description: Twenty 5-week old C57BL6/J mice were divided into four groups. The control group received 0.2 mL phosphate-buffered physiological saline (PBS) once per day by forced oral administration up to and including the 6th day of keeping. In like manner, the liposome composition of Example 1 was orally administered instead of the PBS to the group designated as the liposomized β-sitosterol group; an aqueous suspension of ordinary, unliposomized β-sitosterol (contained the same amount of β-sitosterol as the liposomized β-sitosterol administered to the liposomized β-sitosterol group) was orally administered instead of the PBS to the group designated as the β-sitosterol group; and the liposome composition of Comparative Example 1 was orally administered instead of the PBS to the group designated as the liposomized cholesterol group. B16BL6 melanoma cells suspended in serum-free medium were administered intravenously (3×10^4/0.2 ml/animal) on the 7th day of keeping. The mice were dissected on the 21st day of keeping and the lungs were extirpated; the lung surfaces were inspected and the number of colonies was counted.

Question: `CC[C@H](CC[C@@H](C)[C@H]1CC[C@H]2[C@@H]3CC=C4C[C@@H](O)CC[C@]4(C)[C@H]3CC[C@]12C)C(C)C` [β-Sitosterol, β-sitosterol] was tested. Which “Average number of colonies” value did it give?
Answer: The value was 43.
